Source: ChEMBL document CHEMBL1201862, “PubChem BioAssay data set” (2004)
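The compound was tested at five concentrations on cells cultured in 96-well plates, with a 48-hour exposure period. GI50 = concentration required for 50% inhibition of growth.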 The source made the active and inactive calls. No stated cut-off is given here; in the data, active = GI50 up to about 1.1 µM and inactive = higher. Where a SMILES comes first, the peptide text is derived from it. Square brackets hold non-standard residues; d marks the D form. Peptide text beside a SMILES is read from it.

Tests used:
Assay in all cases: DTP human tumour cell line panel, 48 h
786-0 = tested on: 786-0
A498 = tested on: A498
A549 = tested on: A549
DU-145 = tested on: DU-145
HCT-15 = tested on: HCT-15
HL-60 = tested on: HL-60
LOX IMVI = tested on: LOX IMVI
MOLT-4 = tested on: MOLT-4
NCI-H522 = tested on: NCI-H522
NCI/ADR-RES = tested on: NCI/ADR-RES
OVCAR-3 = tested on: OVCAR-3
RPMI-8226 = tested on: RPMI-8226
SF-268 = tested on: SF-268
SF-539 = tested on: SF-539
TK-10 = tested on: TK-10
UACC-62 = tested on: UACC-62
K562 = tested on: K562
SF-295 = tested on: SF-295
SR = tested on: SR
MDA-N = tested on: MDA-N

Compound	GI50 (786-0)	GI50 (A498)	GI50 (A549)	GI50 (DU-145)	GI50 (HCT-15)	GI50 (HL-60)	GI50 (LOX IMVI)	GI50 (MOLT-4)	GI50 (NCI-H522)	GI50 (NCI/ADR-RES)	GI50 (OVCAR-3)	GI50 (RPMI-8226)	GI50 (SF-268)	GI50 (SF-539)	GI50 (TK-10)	GI50 (UACC-62)	GI50 (K562)	GI50 (SF-295)	GI50 (SR)	GI50 (MDA-N)
Cc1ccc2c(c1)SC1=Nc3sc4cc(C)ccc4[n+]3CN12	32.2 µM (inactive)	11.1 µM (inactive)	2.68 µM (inactive)	24.1 µM (inactive)	40.5 µM	2.07 µM (inactive)	21 µM (inactive)	< 0.01 µM (active)	1.05 µM (active)	34.4 µM (inactive)	1.01 µM (active)	1.81 µM (inactive)	8.26 µM (inactive)	3.73 µM (inactive)	14.9 µM (inactive)	3.4 µM (inactive)				
CC1=C(C(=O)Nc2ccccc2)C(c2ccccc2Cl)C(C(=O)Nc2ccccc2)=C(C)N1	19.6 µM (inactive)	27.8 µM (inactive)	41.6 µM (inactive)		20 µM	< 0.01 µM (active)	18.6 µM (inactive)	17.4 µM (inactive)	19.6 µM (inactive)		17.6 µM (inactive)	19.4 µM (inactive)	24.4 µM (inactive)	20 µM (inactive)	38.7 µM (inactive)	13.6 µM (inactive)	38.6 µM (inactive)	25.4 µM (inactive)	25.8 µM (inactive)	
CN(C)c1cccc(OC(=O)NCCCl)c1		> 100 µM (inactive)	> 100 µM (inactive)		> 100 µM	> 100 µM (inactive)	> 100 µM (inactive)	> 100 µM (inactive)	> 100 µM (inactive)	> 100 µM (inactive)	> 100 µM (inactive)		> 100 µM (inactive)	> 100 µM (inactive)		> 100 µM (inactive)	> 100 µM (inactive)	> 100 µM (inactive)		
CC1=NN2C(c3ccc([N+](=O)[O-])cc3)=CSC2=NC(C)(C)C1	> 100 µM (inactive)	> 100 µM (inactive)	> 100 µM (inactive)		> 100 µM	> 100 µM (inactive)	> 100 µM (inactive)	> 100 µM (inactive)	> 100 µM (inactive)		> 100 µM (inactive)	> 100 µM (inactive)	> 100 µM (inactive)	> 100 µM (inactive)	> 100 µM (inactive)	> 100 µM (inactive)	> 100 µM (inactive)	> 100 µM (inactive)	> 100 µM (inactive)	
COC(=O)Cc1c(C2C(CC(=O)OC)c3ccccc3N2C2OC(CO)C(O)C(O)C2O)[nH]c2ccccc12 (stereo unspecified)		> 100 µM (inactive)	> 100 µM (inactive)	> 100 µM (inactive)	> 100 µM			> 100 µM (inactive)	> 100 µM (inactive)		> 100 µM (inactive)	> 100 µM (inactive)	> 100 µM (inactive)		> 100 µM (inactive)	> 100 µM (inactive)		> 100 µM (inactive)	> 100 µM (inactive)	> 100 µM (inactive)
CC(C)C[C@H](NC(=O)[C@H](CC(C)C)NC(=O)[C@@H](Cc1c[nH]c2ccccc12)NC(=O)[C@H](Cc1ccccc1)NC(=O)[C@@H](Cc1c[nH]c2ccccc12)NC(=O)[C@H](CCC(N)=O)NC(=O)[C@@H](CCC(N)=O)NC(=O)[C@@H]1CCCN1C(=O)[C@@H](CCCCN)NC(=O)[C@H]1CCCN1C(=O)[C@H](N)CCCN=C(N)N)C(N)=O (H-[dR][dP][dK]P[dQ]Q[dW]F[dW]LL-NH2)		32.3 µM (inactive)	> 100 µM (inactive)		> 100 µM	> 100 µM (inactive)	> 100 µM (inactive)	> 27.4 µM (inactive)	> 100 µM (inactive)	> 100 µM (inactive)	> 86.3 µM (inactive)	> 100 µM (inactive)	> 100 µM (inactive)	> 61.4 µM (inactive)		> 100 µM (inactive)	> 100 µM (inactive)	63.5 µM (inactive)		
Cc1cc(/N=N/c2ccc(/N=N/c3c(O)c(S(=O)(=O)O)cc4cc(S(=O)(=O)O)ccc34)cc2C)ccc1/N=N/c1ccc2cc(S(=O)(=O)O)cc(S(=O)(=O)O)c2c1		> 100 µM (inactive)	> 100 µM (inactive)		> 100 µM	> 100 µM (inactive)	> 100 µM (inactive)	> 100 µM (inactive)	> 100 µM (inactive)	> 100 µM (inactive)	> 100 µM (inactive)	> 100 µM (inactive)	> 100 µM (inactive)	> 100 µM (inactive)		> 100 µM (inactive)	> 100 µM (inactive)	> 77.1 µM (inactive)		
O=C([O-])Cc1ccccc1.[Na+] [SODIUM PHENYLACETATE]	1070 µM (inactive)	519 µM (inactive)	1410 µM (inactive)		703 µM		1160 µM (inactive)	289 µM (inactive)	618 µM (inactive)	540 µM (inactive)	550 µM (inactive)	413 µM (inactive)	1340 µM (inactive)	> 2000 µM (inactive)	1130 µM (inactive)	1370 µM (inactive)	284 µM (inactive)	843 µM (inactive)	200 µM (inactive)	10.6 µM (inactive)
COc1ccc(-c2cc(-c3ccccc3)nc(N)n2)c(O)c1	> 100 µM (inactive)	> 100 µM (inactive)	12.8 µM (inactive)		6.03 µM	2.02 µM (inactive)	6.78 µM (inactive)	4.16 µM (inactive)	2.78 µM (inactive)	> 52 µM (inactive)	> 49.5 µM (inactive)	2.31 µM (inactive)	17.8 µM (inactive)	> 100 µM (inactive)	> 100 µM (inactive)	> 28.9 µM (inactive)	2.19 µM (inactive)	> 86.1 µM (inactive)	4.3 µM (inactive)	4.55 µM (inactive)
O=C(c1ccccc1)c1c2ccccn2c2cccc[n+]12	> 100 µM (inactive)	71.8 µM (inactive)	82.4 µM (inactive)	> 100 µM (inactive)	> 100 µM	79.6 µM (inactive)	> 100 µM (inactive)	> 100 µM (inactive)		> 100 µM (inactive)	> 100 µM (inactive)	> 100 µM (inactive)	> 100 µM (inactive)	> 100 µM (inactive)	> 100 µM (inactive)	> 100 µM (inactive)	> 100 µM (inactive)	> 100 µM (inactive)	> 100 µM (inactive)	
COC(=O)C(Cc1c[nH]c2ccccc12)NC(=O)C(Cc1c[nH]cn1)NC(=O)C1CCC(=O)N1C(=O)OCc1ccccc1 (stereo unspecified)	> 100 µM (inactive)	7.35 µM (inactive)	> 100 µM (inactive)			> 100 µM (inactive)		> 100 µM (inactive)				> 100 µM (inactive)			> 100 µM (inactive)	> 100 µM (inactive)	> 100 µM (inactive)		> 100 µM (inactive)	> 100 µM (inactive)
CC1(C)OC[C@@H](O)[C@H](C#N)CO1	> 100 µM (inactive)	> 100 µM (inactive)	> 100 µM (inactive)	> 100 µM (inactive)	> 100 µM	> 100 µM (inactive)	> 100 µM (inactive)	> 100 µM (inactive)	> 100 µM (inactive)		> 100 µM (inactive)	> 100 µM (inactive)	> 100 µM (inactive)	> 100 µM (inactive)	> 100 µM (inactive)	> 100 µM (inactive)	> 100 µM (inactive)	> 100 µM (inactive)	> 100 µM (inactive)	> 100 µM (inactive)
O=C(CCN1CCOCC1)C(=Cc1ccccc1)C(=O)CCN1CCOCC1		17.3 µM (inactive)	18.1 µM (inactive)		2.1 µM	1.53 µM (inactive)	1.93 µM (inactive)	1.32 µM (inactive)	1.5 µM (inactive)	2.46 µM (inactive)	3.97 µM (inactive)	1.04 µM (active)	6.85 µM (inactive)	3.44 µM (inactive)		2.31 µM (inactive)	0.836 µM (active)	15.6 µM (inactive)		
CC1NC(=O)CNC(=O)CNC(=O)C(Cc2ccc(O)cc2)NC(=O)C(C(C)C)NC(=O)C(C)NC1=O (stereo unspecified) (cyclo(GGAAVY); configuration not given here)		> 100 µM (inactive)	> 100 µM (inactive)		> 100 µM	> 100 µM (inactive)	> 100 µM (inactive)	> 100 µM (inactive)		> 100 µM (inactive)	> 100 µM (inactive)	> 100 µM (inactive)	> 100 µM (inactive)	> 100 µM (inactive)		> 100 µM (inactive)		> 100 µM (inactive)		
C/C=C/CC(S(=O)(=O)c1ccccc1)S(=O)(=O)c1ccccc1		> 100 µM (inactive)	> 100 µM (inactive)		60 µM	> 100 µM (inactive)	> 100 µM (inactive)	> 100 µM (inactive)	12 µM (inactive)		> 100 µM (inactive)	95.3 µM (inactive)		> 100 µM (inactive)	> 100 µM (inactive)	36.1 µM (inactive)	> 100 µM (inactive)	> 100 µM (inactive)	> 100 µM (inactive)	
CCS(=O)(=O)Nc1ccc(Nc2c3ccccc3nc3ccccc23)c(OC)c1		0.24 µM (active)	0.0205 µM (active)		0.682 µM	0.0168 µM (active)	0.275 µM (active)	< 0.01 µM (active)	1.2 µM (inactive)	5 µM (inactive)	2.03 µM (inactive)	0.28 µM (active)	0.421 µM (active)	0.295 µM (active)		0.416 µM (active)	0.681 µM (active)	0.13 µM (active)		
O=C(NC/C=C/CO)c1ccccc1		> 100 µM (inactive)	> 100 µM (inactive)		> 100 µM	> 100 µM (inactive)	> 100 µM (inactive)	> 100 µM (inactive)	> 100 µM (inactive)	> 100 µM (inactive)	> 100 µM (inactive)	> 100 µM (inactive)	> 100 µM (inactive)	> 100 µM (inactive)		> 100 µM (inactive)	> 100 µM (inactive)	> 100 µM (inactive)		
